Source: ChEMBL document CHEMBL1201862, “PubChem BioAssay data set” (2004)
Calls of active or inactive are those of the source.

How the values were obtained:
Caspase-7 = molecular target: T1, Caspase-7 (Homo sapiens, UniProt P55210); experiment: caspase-7 enzyme inhibition, selectivity check – biochemical, DEVD-R110 fluorescence, cherry-pick, selectivity assay for caspase-6 inhibitor project, dose response (AID 743295); type: functional
T1 sequence (P55210 whole entry): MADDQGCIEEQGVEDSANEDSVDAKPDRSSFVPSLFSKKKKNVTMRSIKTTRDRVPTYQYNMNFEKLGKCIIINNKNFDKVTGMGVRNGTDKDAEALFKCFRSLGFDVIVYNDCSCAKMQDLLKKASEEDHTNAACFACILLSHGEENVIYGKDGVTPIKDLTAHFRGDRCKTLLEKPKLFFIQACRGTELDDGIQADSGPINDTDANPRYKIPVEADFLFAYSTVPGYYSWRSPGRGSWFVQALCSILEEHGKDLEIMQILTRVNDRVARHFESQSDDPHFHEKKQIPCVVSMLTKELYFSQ

[1] = molecular target: Serine/threonine-protein phosphatase (Homo sapiens, UniProt Q9BPW0); experiment: inhibition of protein phosphatase 5 activity – biochemical, fluorescence, dose response (AID 2395)
[2] = molecular target: T2, Sentrin-specific protease 8 (Homo sapiens, UniProt Q96LD8); type: functional
T2 sequence (Q96LD8 whole entry): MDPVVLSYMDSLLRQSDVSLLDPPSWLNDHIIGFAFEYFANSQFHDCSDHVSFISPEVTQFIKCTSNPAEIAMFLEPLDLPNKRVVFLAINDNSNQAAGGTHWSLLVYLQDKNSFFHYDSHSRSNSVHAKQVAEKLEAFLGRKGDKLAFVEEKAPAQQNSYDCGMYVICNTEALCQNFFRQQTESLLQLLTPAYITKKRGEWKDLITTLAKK

[3] = molecular target: T2, Sentrin-specific protease 8; type: functional; remark: listed apart in the source
[4] = molecular target: Serine/threonine-protein phosphatase PP1-alpha catalytic subunit (Homo sapiens, UniProt P62136); experiment: inhibition of protein phosphatase 1 activity – biochemical, fluorescence, dose response (AID 2394)
[5] = inhibition of ARNT PAS-B/TACC3 complex formation – biochemical, AlphaScreen, cherry-picked samples, confirmation (AID 651703); type: functional, Homo sapiens;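 also: His-tagged ARNT PAS-B domain paired with GST-TACC3 E629A dimer coactivator fragment; potency of inhibitors that break up the complex and lower AlphaScreen signal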
[6] = viability loss in HeLa cells – cytotoxicity control for MgcRacGAP inhibitor project, dose response (AID 624300); type: functional
[7] = NIH-3T3 fibroblast cytotoxicity, dose response, cytotoxicity control, cell-based, fluorescence, Alamar Blue, secondary assay (AID 2327); type: functional;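 also: NIH-3T3 mouse fibroblasts cultured with fluconazole at 8 µg/mL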
[8] = molecular target: T3, RNA-binding protein pos-1 (Caenorhabditis elegans, UniProt G5EF15); experiment: disruptors of C. elegans POS-1 RNA interaction – biochemical, fluorescence polarization, dose response (AID 1964);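 also: purified POS-1 fused to maltose binding protein made in E. coli; potency of compounds blocking POS-1 binding to fluorescent RNA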
T3 sequence (G5EF15 whole entry): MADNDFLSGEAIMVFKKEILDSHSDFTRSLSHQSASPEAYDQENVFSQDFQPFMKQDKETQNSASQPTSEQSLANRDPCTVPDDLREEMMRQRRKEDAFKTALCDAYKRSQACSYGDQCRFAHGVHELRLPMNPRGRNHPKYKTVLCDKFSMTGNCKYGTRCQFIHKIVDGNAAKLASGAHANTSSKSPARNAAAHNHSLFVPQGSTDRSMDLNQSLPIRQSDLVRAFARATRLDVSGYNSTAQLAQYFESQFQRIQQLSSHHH

[9] = molecular target: T4, Replicative DNA helicase DnaB (Mycobacterium tuberculosis, UniProt P9WMR3); experiment: DnaB intein splicing inhibitors, dose response, biochemical, cell-free fluorescence (AID 449749); type: functional
T4 sequence (P9WMR3 whole entry): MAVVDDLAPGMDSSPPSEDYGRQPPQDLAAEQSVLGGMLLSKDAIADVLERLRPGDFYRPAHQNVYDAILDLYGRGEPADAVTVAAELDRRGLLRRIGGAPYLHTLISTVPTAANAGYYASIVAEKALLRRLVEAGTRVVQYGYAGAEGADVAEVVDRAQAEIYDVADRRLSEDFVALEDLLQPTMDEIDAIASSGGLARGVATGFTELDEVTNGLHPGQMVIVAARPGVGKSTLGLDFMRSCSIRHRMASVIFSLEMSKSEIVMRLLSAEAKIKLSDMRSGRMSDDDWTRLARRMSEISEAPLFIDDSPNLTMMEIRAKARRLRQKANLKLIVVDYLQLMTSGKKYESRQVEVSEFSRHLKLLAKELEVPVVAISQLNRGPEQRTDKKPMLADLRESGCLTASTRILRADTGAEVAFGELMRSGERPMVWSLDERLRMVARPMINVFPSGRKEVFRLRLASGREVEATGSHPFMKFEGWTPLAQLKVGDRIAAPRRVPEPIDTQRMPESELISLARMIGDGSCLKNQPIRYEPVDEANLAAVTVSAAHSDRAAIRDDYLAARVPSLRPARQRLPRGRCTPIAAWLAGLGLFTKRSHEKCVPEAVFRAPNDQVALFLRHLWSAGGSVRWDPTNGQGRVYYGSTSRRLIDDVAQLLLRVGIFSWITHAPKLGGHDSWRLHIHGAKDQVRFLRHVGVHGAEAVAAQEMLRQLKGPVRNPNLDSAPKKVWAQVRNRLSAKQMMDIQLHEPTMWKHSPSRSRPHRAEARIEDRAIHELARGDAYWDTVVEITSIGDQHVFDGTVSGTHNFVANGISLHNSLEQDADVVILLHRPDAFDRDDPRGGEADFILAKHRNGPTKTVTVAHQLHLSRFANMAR

Sequence of Serine/threonine-protein phosphatase PP1-alpha catalytic subunit (P62136 whole entry, the tested form may be a part): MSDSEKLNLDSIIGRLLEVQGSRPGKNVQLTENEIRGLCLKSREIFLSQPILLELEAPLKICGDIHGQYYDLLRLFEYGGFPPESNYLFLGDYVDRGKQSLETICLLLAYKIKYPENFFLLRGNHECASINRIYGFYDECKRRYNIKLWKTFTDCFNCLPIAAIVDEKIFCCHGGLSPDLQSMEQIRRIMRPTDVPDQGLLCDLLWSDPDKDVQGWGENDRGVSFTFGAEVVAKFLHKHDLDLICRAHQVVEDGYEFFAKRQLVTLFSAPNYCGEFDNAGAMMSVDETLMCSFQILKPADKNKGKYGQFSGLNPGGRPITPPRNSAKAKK
Sequence of Serine/threonine-protein phosphatase (Q9BPW0 whole entry): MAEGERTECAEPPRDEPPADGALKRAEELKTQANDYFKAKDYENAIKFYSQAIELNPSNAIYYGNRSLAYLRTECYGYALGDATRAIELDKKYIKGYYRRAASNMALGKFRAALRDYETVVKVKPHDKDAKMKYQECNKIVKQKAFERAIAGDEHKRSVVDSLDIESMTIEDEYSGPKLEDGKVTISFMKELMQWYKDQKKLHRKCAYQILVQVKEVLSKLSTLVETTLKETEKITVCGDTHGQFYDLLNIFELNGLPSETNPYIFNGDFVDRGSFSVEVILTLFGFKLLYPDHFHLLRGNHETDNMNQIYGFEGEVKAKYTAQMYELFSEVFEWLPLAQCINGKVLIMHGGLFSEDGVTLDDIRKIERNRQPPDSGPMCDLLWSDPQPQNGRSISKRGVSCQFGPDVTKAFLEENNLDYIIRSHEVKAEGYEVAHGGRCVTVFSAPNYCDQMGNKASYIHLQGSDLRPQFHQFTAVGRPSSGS

For `Oc1nc(Nc2ccc(F)cc2)cc2ccccc12`, which AC50 (Caspase-7) is on record?
The AC50 was 2.11 µM (active).

For `CN(C)c1cc(N/N=C\c2ccccc2)nc(N(C)C)n1`, which IC50 [1] is on record?
Its IC50 is 6.1 µM (active).

And the IC50 [2]?
Its IC50 is 0.368 µM (active).

What about the IC50 [3] of the same compound?
The IC50 was 0.661 µM (active).

And the IC50 [4]?
Its IC50 is > 67 µM (not active).

What does the source list for `CCN(CC)CCOc1ccc2c(c1)C(=NNC(=O)c1ccccn1)c1cc(OCCN(CC)CC)ccc1-2`?
AC50 [5]: 109 µM (active); CC50 [6]: 31.7 µM (active)

With `O=C(O)c1ccc2c(c1)[C@@H]1C=CC[C@@H]1[C@H](c1ccccn1)N2` as the compound, how does the EC50 [7] read?
Its EC50 is > 150 µM (inactive).

And the EC50 [8]?
Its EC50 is 4.61 µM (inconclusive).

For `O=C(NC1=C(Nc2ccc(F)cc2)C(=O)c2ccccc2C1=O)c1ccc(Cl)cc1`, which AC50 [9] is on record?
The AC50 was 11.8 µM (active).
